# Assay results as given in patent US11267800B2, “Cyclohexyl acid triazole azines as LPA antagonists” (BRISTOL-MYERS SQUIBB COMPANY, priority 2017, dated 2022).
# Molecular target: T1, human LPA1 (Homo sapiens, UniProt Q92633)
# T1 construct: expressed in transfected cells; host or cells: Chinese hamster ovary (CHO) cells
# Test: LPA1 functional antagonist assay (calcium flux)
# Type: cell-based
# Settings: CHO cells overexpressing human LPA1; inhibition of calcium flux induced by 10 nM LPA; read-out: hLPA1 IC50
# Summary of the method: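 Dye-loaded CHO cells overexpressing human LPA1 (30 min, 37 °C) were preincubated 20 min at room temperature with compound (0.08 nM–5 μM; 0.5% DMSO; HBSS, 20 mM HEPES, 0.1% fatty-acid-free BSA), then stimulated with 10 nM LPA. IC50 is the concentration inhibiting 50% of LPA-induced calcium flux, from a 4-parameter logistic fit.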
# T1 sequence (Q92633 whole entry): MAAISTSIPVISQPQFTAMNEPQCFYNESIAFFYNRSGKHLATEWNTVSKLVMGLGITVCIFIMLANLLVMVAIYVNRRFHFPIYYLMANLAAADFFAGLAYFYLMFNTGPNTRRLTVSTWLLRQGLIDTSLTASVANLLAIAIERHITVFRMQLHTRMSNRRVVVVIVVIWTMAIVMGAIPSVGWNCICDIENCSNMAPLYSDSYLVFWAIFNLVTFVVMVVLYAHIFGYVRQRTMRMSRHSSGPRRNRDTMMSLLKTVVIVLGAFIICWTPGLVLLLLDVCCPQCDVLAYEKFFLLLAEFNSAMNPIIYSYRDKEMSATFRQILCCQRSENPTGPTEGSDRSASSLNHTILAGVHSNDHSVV
row,SMILES,IC50 [nM]
1,Cc1nc(-c2nnn(C)c2CNc2nccc(-c3ccccc3)n2)cnc1O[C@H]1CCC[C@H](C(=O)O)C1 [Example 137],56
2,Cc1nc(-c2nnn(C)c2CNc2nccc(-c3ccccc3F)n2)cnc1O[C@H]1CCC[C@H](C(=O)O)C1 [Example 138],33
3,Cn1nnc(-c2ccc(O[C@H]3CCC[C@H](C(=O)O)C3)cn2)c1CNc1nccc(OC2CC2)n1 [Example 139],42
4,Cn1nnc(-c2ccc(O[C@H]3CCC[C@H](C(=O)O)C3)cn2)c1CNc1ccnc(OC2CC2)n1 [Example 140],1370
5,CCOc1ccnc(NCc2c(-c3ccc(O[C@H]4CCC[C@H](C(=O)O)C4)cn3)nnn2C)n1 [Example 141],22
6,COc1nc(NCc2c(-c3ccc(O[C@H]4CCC[C@H](C(=O)O)C4)c(C)n3)nnn2C)ncc1F [Example 142],159
7,Cc1nc(-c2nnn(C)c2CNc2ncc(F)c(-c3ccccc3)n2)ccc1O[C@H]1CCC[C@H](C(=O)O)C1 [Example 143],26
8,Cc1nc(-c2nnn(C)c2CNc2ncc(F)c(C(C)(C)C)n2)ccc1O[C@H]1CCC[C@H](C(=O)O)C1 [Example 144],40
9,Cc1cc(-c2ccccc2C#N)nc(NCc2c(-c3ccc(O[C@H]4CCC[C@H](C(=O)O)C4)c(C)n3)nnn2C)n1 [Example 145],58
10,Cc1nc(-c2nnn(C)c2CNc2ncc3c(n2)-c2ccccc2OC3)ccc1O[C@H]1CCC[C@H](C(=O)O)C1 [Example 147],278
11,CCC1(c2ccnc(NCc3c(-c4ccc(O[C@H]5CCC[C@H](C(=O)O)C5)c(C)n4)nnn3C)n2)CC1 [Example 148],70
12,CCC(C)(C)c1ccnc(NCc2c(-c3ccc(O[C@H]4CCC[C@H](C(=O)O)C4)c(C)n3)nnn2C)n1 [Example 149],34
13,Cc1nc(-c2nnn(C)c2CNc2cc(C(C)(C)C)ccn2)ccc1O[C@H]1CCC[C@H](C(=O)O)C1 [Example 150],84
14,Cc1nc(-c2nnn(C)c2CNc2nccc(C3(C)CC3)n2)ccc1O[C@H]1CCC[C@H](C(=O)O)C1 [Example 151],40
15,Cc1nc(-c2nnn(C)c2CNc2cc(Oc3ccccc3)ccn2)ccc1O[C@H]1CCC[C@H](C(=O)O)C1 [Example 152],67
16,Cc1nc(-c2nnn(C)c2CNc2nccc(C(C)(C)O)n2)ccc1O[C@H]1CCC[C@H](C(=O)O)C1 [Example 153],704
17,Cc1nc(-c2nnn(C)c2CNc2nccc(C3CC3C)n2)ccc1O[C@H]1CCC[C@H](C(=O)O)C1 (stereo partly drawn) [Example 154],43
18,Cc1nc(-c2nnn(C)c2CNc2nccc(C34CC(C3)C4)n2)ccc1O[C@H]1CCC[C@H](C(=O)O)C1 [Example 155],96
19,Cc1nc(-c2nnn(C)c2CNc2nccc(C3CC(F)C3)n2)ccc1O[C@H]1CCC[C@H](C(=O)O)C1 (stereo partly drawn) [Example 156],32
20,Cc1nc(-c2nnn(C)c2CNc2ncc(F)c(C(C)C)n2)ccc1O[C@H]1CCC[C@H](C(=O)O)C1 [Example 157],40
21,Cc1nc(-c2nnn(C)c2CNc2ncc(Cl)c(C(C)C)n2)ccc1O[C@H]1CCC[C@H](C(=O)O)C1 [Example 158],27
22,CCC(C)c1ccnc(NCc2c(-c3ccc(O[C@H]4CCC[C@H](C(=O)O)C4)c(C)n3)nnn2C)n1 (stereo partly drawn) [Example 159],21
23,Cc1nc(-c2nnn(C)c2CNc2nccc(C3CC(F)(F)C3)n2)ccc1O[C@H]1CCC[C@H](C(=O)O)C1 [Example 160],17
24,COC(=O)c1cc(C(C)(C)C)nc(NCc2c(-c3ccc(O[C@H]4CCC[C@H](C(=O)O)C4)c(C)n3)nnn2C)n1 [Example 161],443

row,SMILES,IC50 [nM]
1,Cc1nc(-c2nnn(C)c2CNc2nc(C(N)=O)cc(C(C)(C)C)n2)ccc1O[C@H]1CCC[C@H](C(=O)O)C1 [Example 162],2370
2,COC(=O)c1cc(C2CCC2)nc(NCc2c(-c3ccc(O[C@H]4CCC[C@H](C(=O)O)C4)c(C)n3)nnn2C)n1 [Example 163],168
3,Cc1nc(-c2nnn(C)c2CNc2nc(C#N)cc(C3CCC3)n2)ccc1O[C@H]1CCC[C@H](C(=O)O)C1 [Example 164],42
4,Cc1nc(-c2nnn(C)c2CNc2nc(C(N)=O)cc(C3CCC3)n2)ccc1O[C@H]1CCC[C@H](C(=O)O)C1 [Example 165],243
5,Cc1nc(-c2nnn(C)c2CNc2nc(C#N)cc(C(C)(C)C)n2)ccc1O[C@H]1CCC[C@H](C(=O)O)C1 [Example 166],180
6,Cc1nc(-c2nnn(C)c2CNc2nccc(C3(C)CC(F)(F)C3)n2)ccc1O[C@H]1CCC[C@H](C(=O)O)C1 [Example 167],55
7,Cc1nc(-c2nnn(C)c2CNc2ncc(C#N)c(C3CCC3)n2)ccc1O[C@H]1CCC[C@H](C(=O)O)C1 [Example 168],129
8,COc1cc(C(C)(C)C)nc(NCc2c(-c3ccc(O[C@H]4CCC[C@H](C(=O)O)C4)c(C)n3)nnn2C)n1 [Example 169],86
9,COc1cc(C2CCC2)nc(NCc2c(-c3ccc(O[C@H]4CCC[C@H](C(=O)O)C4)c(C)n3)nnn2C)n1 [Example 170],16
10,Cc1nc(-c2nnn(C)c2CNc2ncc(C#N)c(C(C)(C)C)n2)ccc1O[C@H]1CCC[C@H](C(=O)O)C1 [Example 171],177
11,COc1cc(OC)nc(NCc2c(-c3ccc(O[C@H]4CCC[C@H](C(=O)O)C4)c(C)n3)nnn2C)n1 [Example 172],61
12,CCOc1cc(OCC)nc(NCc2c(-c3ccc(O[C@H]4CCC[C@H](C(=O)O)C4)c(C)n3)nnn2C)n1 [Example 173],127
13,CCOc1cc(C)nc(NCc2c(-c3ccc(O[C@H]4CCC[C@H](C(=O)O)C4)c(C)n3)nnn2C)n1 [Example 174],56
14,Cc1nc(-c2nnn(C)c2CNc2nc(OC(C)C)cc(OC(C)C)n2)ccc1O[C@H]1CCC[C@H](C(=O)O)C1 [Example 175],384
15,COc1cc(C(C)C)nc(NCc2c(-c3ccc(O[C@H]4CCC[C@H](C(=O)O)C4)c(C)n3)nnn2C)n1 [Example 176],27
16,CCCOc1nc(NCc2c(-c3ccc(O[C@H]4CCC[C@H](C(=O)O)C4)c(C)n3)nnn2C)nc(OC)n1 [Example 177],250
17,Cc1nc(-c2nnn(C)c2CNc2nncc(C(C)(C)C)n2)ccc1O[C@H]1CCC[C@H](C(=O)O)C1 [Example 178],498
18,Cc1nc(-c2nnn(C)c2CNc2cc(OC3CCC3)ccn2)ccc1O[C@H]1CCC[C@H](C(=O)O)C1 [Example 180],246
19,Cc1nc(-c2nnn(C)c2CNc2ncnc(C(C)C)n2)ccc1O[C@H]1CCC[C@H](C(=O)O)C1 [Example 181],106
20,Cc1nc(-c2nnn(C)c2CNc2ncnc(C(C)(C)C)n2)ccc1O[C@H]1CCC[C@H](C(=O)O)C1 [Example 182],693
21,Cc1nc(-c2nnn(C)c2CNc2ncnc(C3CCC3)n2)ccc1O[C@H]1CCC[C@H](C(=O)O)C1 [Example 183],54
22,Cc1nc(-c2nnn(C)c2CNc2ncnc(C3CCCC3)n2)ccc1O[C@H]1CCC[C@H](C(=O)O)C1 [Example 184],90
23,Cc1nc(-c2nnn(C)c2CNc2ncnc(C3CCCCC3)n2)ccc1O[C@H]1CCC[C@H](C(=O)O)C1 [Example 185],288
24,Cc1nc(-c2nnn(C)c2CNc2nc(O)nc(C3CCCCC3)n2)ccc1O[C@H]1CCC[C@H](C(=O)O)C1 [Example 186],717
